Here are results for 12 compounds from patent US20070105835A1, “Compositions and methods for modulating poly(ADP-ribose) polymerase activity” (priority 2005, published 2007).

“Also recorded” adds a separate entry of the source. Like-named read-outs stand apart in the source and are kept apart here.

Assay [1] relates to striatal cells derived from Huntingtin double knock-in mutant and wildtype transgenic mice. Description: ATP levels in oxidant-treated wildtype and mutant HD striatal cells. Type of assay: cell-based, mouse. As to conditions: for rescue of loss of ATP: mutant and wild type striatal cells, oxidant-treated; for EC50: read-out: oxidant concentration for 50% loss of ATP; for loss of ATP from basal ATP levels: 500 μM oxidant. On the procedure:
(§1) FIGS. 3A-3F. FIG. 3A is a bar graph showing the effect of the PARP-1 inhibitor ANI on ATP levels in one normal (white) and two mutant HD (black) lymphoid cell lines treated with the oxidant (Oxd.) hydrogen peroxide. Lymphoblasts treated (T) with 200 μM oxidant were supplemented with mock inhibitor (DMSO) or with 5 μM PARP-1 inhibitor ANI. FIG. 3B is a bar graph showing the effect of the novel PARP-1 inhibitor K245 on ATP levels in oxidant (Oxd.) treated normal (white) and mutant HD (black) lymphoid cell lines. Hydrogen peroxide was the oxidant. Lymphoblasts treated (T) with 200 μM oxidant were supplemented with mock inhibitor (DMSO) or with 1, 5 or 10 μM PARP-1 inhibitor K245. FIG. 3C is a bar graph showing the effects of various compounds on relative ATP levels in wildtype (white) and mutant HD (black) striatal cells treated with 400 μM hydrogen peroxide. Basal ATP levels in cells untreated with oxidant were 100%. Oxidant-treated cells were supplemented with mock (DMSO) or PARP-1 inhibitors ANI and K245 at concentrations 0.1 μM, 1 μM, and 5 μM; and 1 μM, 5 μM, and 10 μM, respectively. […] FIG. 3D is a bar graph showing the effects of PARP-1 inhibitors ANI and K245 on basal ATP levels in normal (white) and mutant HD (black) lymphoblasts. Cells were supplemented with 5 μM ANI and 10 μM K245. Basal ATP levels in cells supplemented with mock (DMSO) were 100%. Cells were not treated with oxidant. FIG. 3E is a bar graph showing the effects of PARP-1 inhibitors on ATP levels in untreated striatal cells and in striatal cells treated with the mitochondrial blocker 3-NP. Wildtype cells are indicated by white bars and mutant HD cells are indicated by black bars. Untreated wildtype and mutant HD cells were supplemented with 5 μM ANI or 10 μM K245. Basal ATP levels in cells supplemented with mock (DMSO) were 100%. Cells treated with 5 μM 3-NP were supplemented with mock (DMSO), 1 or 5 μM ANI, or 1 μM, 5 μM, or 10 μM K245. FIG. 3F is a bar graph showing PARP-1 activity levels in untreated wildtype (7Q) and mutant HD (111Q) striatal cells, and in normal (30Q) and mutant HD (63Q) lymphoblasts.

Assay [2] relates to PC12 cell-line expressing fragments of mutant Htt protein. Description: oxidant (hydrogen peroxide)-mediated ATP loss and cell death in PC12 cells expressing mutant Htt fragments. Type of assay: cell-based. Here is the method: To investigate the impact of oxidative stress on HD cells we measured ATP levels in lymphoblasts derived from HD patients and normal controls. ATP levels were measured using a commercially available-luciferase substrate. The luciferase enzyme uses ATP as a cofactor to produce one photon of light per substrate molecule (e.g., luciferin). The detectable output is luminescence. There is a linear relationship between the amount of signal output and the amount of ATP present in the sample. Thus, the amount of ATP present in a sample can be directly correlated with the measured output.
To investigate the basis for the hypersensitivity of mutant cells to oxidative stress, we employed a chemical biological approach and screened for small molecules capable of preventing an unsustainable loss of ATP in HD mutant cells. We developed an assay to measure oxidative stress-dependent ATP loss and subsequent cell-death. […] In addition, amino groups of each of CGI and K245-14 were predicted to form hydrogen bonds with Ser243 and Gly202 of PARP1.
To confirm that inhibition of PARP-1 activity could protect cells from ATP depletion, we tested two known enzyme inhibitors in PC12 cells challenged with oxidative stress. The PC12 cell line expressed fragments of mutant Htt protein as described above. […] Maintenance of ATP levels rescued by the PARP-1 inhibitors was dependent on the severity of cellular oxidation (FIG. 2A).

The subject of assay [3] is lymphoblasts derived from HD patients and normal controls. Description: ATP levels in oxidant-treated normal and HD lymphoblasts. Type of assay: cell-based, human. The settings on record: for rescue of loss of ATP: HD and wild type lymphoblasts, oxidant-treated; for EC50: Homo sapiens, read-out: oxidant concentration for 50% loss of ATP. Here is the method:
as §1

The target in another assay is recombinant PARP-1 (Homo sapiens, UniProt P09874). Description: in vitro PARP-1 enzyme inhibition assay. Format: biochemical. Here is the method:
FIGS. 2A-2F. FIG. 2A is a bar graph showing ATP levels in PC12 cells treated with the oxidant (Oxd.), hydrogen peroxide, in the absence (white) and in the presence (gray) of the PARP-1 inhibitor (ANI). FIG. 2B is a graph showing relative ATP levels in PC12 cells treated with hydrogen peroxide in the absence (solid line) and in the presence (dashed line) of 5 μM PARP-1 inhibitor ANI. FIG. 2C is a bar graph showing ATP levels in PC12 cells either untreated (U) or treated (T) with 200 μM oxidant and supplemented with the compounds indicated at the concentrations indicated. […] The IC50 of each inhibitor, determined by in vitro assay, is also shown. […] FIG. 2E is a bar graph showing the effect of different compounds on recombinant PARP-1 activity in vitro. PARP-1 enzymatic activities were determined in the absence (white) or presence (gray) of the testing compounds. […] FIG. 2F is a graph showing the calculated IC50 of inhibitor K245.
(See, e.g., Jagtap and Szabo, Nat Rev Drug Discov. 4:421-440, 2005; Ha and Snyder, Proc Natl Acad Sci USA. 96: 13978-13982, 1999; and Ying et al., Proc Natl Acad Sci USA 98:12227-12232, 2001). To test the effect of the compounds on PARP1 activity, an in vitro PARP-1 assay was used.
Identification of structural analogs. […] PARP-1 activity in the presence of decreasing concentrations of three different inhibitors is shown in the graph in FIG. 6.

The test system of another assay is α-synuclein toxicity. Kind of assay: Parkinson's Disease alpha-synuclein toxicity assay. Format: cell-based. From the text: Alpha-synuclein toxicity assays can also be used to identify compounds that positively impact cell survival and/or function. […] As noted, Parkinson's Disease is among the indications for the present compositions.
Setting [4] is: text and figure legend, read-out: IC50 for PARP-1 inhibition in vitro.
Setting [5] is: Table 3, in vitro enzyme inhibition, read-out: IC50.

Chain of recombinant PARP-1 (P09874 whole entry): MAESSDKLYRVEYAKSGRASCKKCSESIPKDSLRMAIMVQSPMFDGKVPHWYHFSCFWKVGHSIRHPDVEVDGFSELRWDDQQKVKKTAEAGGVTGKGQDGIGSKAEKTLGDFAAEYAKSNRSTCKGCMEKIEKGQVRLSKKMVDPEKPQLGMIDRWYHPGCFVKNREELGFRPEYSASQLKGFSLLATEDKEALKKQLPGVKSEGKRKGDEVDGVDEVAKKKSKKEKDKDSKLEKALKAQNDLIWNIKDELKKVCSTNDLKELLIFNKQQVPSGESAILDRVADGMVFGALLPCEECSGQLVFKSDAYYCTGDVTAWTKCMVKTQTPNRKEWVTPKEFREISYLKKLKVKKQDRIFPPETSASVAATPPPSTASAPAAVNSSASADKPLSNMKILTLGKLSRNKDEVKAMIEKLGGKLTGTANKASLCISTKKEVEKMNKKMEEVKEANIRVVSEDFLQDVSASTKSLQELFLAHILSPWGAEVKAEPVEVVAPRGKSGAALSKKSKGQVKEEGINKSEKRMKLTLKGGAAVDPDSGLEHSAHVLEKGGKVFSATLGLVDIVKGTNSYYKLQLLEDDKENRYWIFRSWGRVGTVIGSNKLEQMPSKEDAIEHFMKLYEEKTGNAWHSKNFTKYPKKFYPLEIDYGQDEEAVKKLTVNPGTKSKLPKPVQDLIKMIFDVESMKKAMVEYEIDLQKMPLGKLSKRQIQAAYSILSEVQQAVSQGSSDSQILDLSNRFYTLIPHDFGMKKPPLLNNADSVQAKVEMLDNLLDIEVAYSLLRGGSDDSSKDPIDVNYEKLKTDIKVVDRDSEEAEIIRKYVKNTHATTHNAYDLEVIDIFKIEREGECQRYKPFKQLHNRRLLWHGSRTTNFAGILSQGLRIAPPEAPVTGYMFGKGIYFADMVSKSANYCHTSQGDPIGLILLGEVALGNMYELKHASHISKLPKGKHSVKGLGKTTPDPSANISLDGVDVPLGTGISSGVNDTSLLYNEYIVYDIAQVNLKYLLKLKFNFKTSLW

Consider `Nc1ccc2c3c(cccc13)C(=O)NC2=O` [4-ANI], for which the “rescue of loss of ATP” value in assay [1] and in assay [3] was “rescued loss of ATP” each time. Moreover, the “rescue of oxidant-mediated ATP loss and cell death” value in assay [2] is on record as “protected high levels of cellular ATP”.
`Nc1ccc2c3c(cccc13)C(=O)N2` [CG1]: the IC50 – broadly, the concentration that inhibits the measured activity by half – at recombinant PARP-1 (setting [4]) amounted to 2.5 µM. The “rescue of oxidant-mediated ATP loss and cell death” value in assay [2] was “rescued oxidant-mediated ATP loss and cell death”.
As to `CCN1C(=O)c2cccc3c(N)ccc1c23` [CG3, reference compound], the PARP-1 inhibition entry at recombinant PARP-1 (result in words) is on record as “did not show any PARP-1 inhibition activity; also recorded: failed to inhibit PARP-1 activity”. In assay [2], the “rescue of oxidant-mediated ATP loss and cell death” value is listed as “did not protect cells from oxidative stress”.
Turning to `CCN(CC)CCNC(=O)c1ccc2c(c1)NC(=O)c1ccccc1N2` [K245-14], the “protective effect in α-synuclein toxicity assay” value in the assay on α-synuclein toxicity is “small but reproducible protective effects”. Moreover, the “rescue of loss of ATP” value in assay [1] and in assay [3] was “rescued loss of ATP” in each case. For the same compound, the 50% inhibitory concentration (IC50) on recombinant PARP-1 (setting [4]) was determined as 2 µM. Besides, the “rescue of oxidant-mediated ATP loss and cell death” value in assay [2] was “rescued oxidant-mediated ATP loss and cell death”.
In the case of `COc1ccc(N2CCN(C(=O)c3ccc4c(c3)NC(=O)c3ccccc3N4)CC2)cc1` [K245-39A], on recombinant PARP-1 (setting [5]), the IC50 came out at 5.5 µM.
The same measure, in the same setting: to `O=C1Nc2cc(C(=O)N3CCN(Cc4ccccc4)CC3)ccc2Nc2ccccc21` [K245-42] belongs 2.2 µM; to `O=C1Nc2cc(C(=O)N3CCCC3)ccc2Nc2ccccc21` [K245-80], 3.5 µM; to `O=C1Nc2cc(C(=O)N3CCN(c4ccc(Cl)cc4)CC3)ccc2Nc2ccccc21` [K245-88], 0.15 µM.
On to `O=C1Nc2cc(C(=O)N3CCN(c4ccccc4F)CC3)ccc2Nc2ccccc21` [K245-89], for which the IC50 on recombinant PARP-1 (setting [5]) was 0.55 µM.
As for `COC(CNC(=O)c1ccc2c(c1)NC(=O)c1ccccc1N2)OC` [K245-95], the IC50 at recombinant PARP-1 (setting [5]) worked out at 2 µM.
`CCN(CCCNC(=O)c1ccc2c(c1)NC(=O)c1ccccc1N2)c1cccc(C)c1` [K245-99]: the IC50 on recombinant PARP-1 (setting [5]) came out at 4 µM.
Turning to `OO` [hydrogen peroxide], the EC50 stood at 410 µM in assay [1] (Mus musculus, mutant HD striatal cells); 550 µM in assay [1] (Mus musculus, wildtype striatal cells); 420 µM in assay [1] (mutant HD striatal cells); 60 µM in assay [3] (mutant HD lymphoblasts); 120 µM in assay [3] (normal lymphoblasts). Moreover, the “loss of ATP from basal ATP levels” value in assay [1] (mutant striatal cells) came to 80%; in assay [1] (wildtype striatal cells) it was 20%.
